Results reported in patent US11358969B2, “Indole AHR inhibitors and uses thereof” (Ikena Oncology, Inc., priority 2017, dated 2022).

What follows are compounds tested against T1, AHR (UniProt P35869) (assay: DRE-Luciferase Reporter Assay (Alternate Method) (Example 1B)). Details: cell line and AHR activating ligand not specified.
T1 construct: IC50
T1 sequence (P35869 1-848): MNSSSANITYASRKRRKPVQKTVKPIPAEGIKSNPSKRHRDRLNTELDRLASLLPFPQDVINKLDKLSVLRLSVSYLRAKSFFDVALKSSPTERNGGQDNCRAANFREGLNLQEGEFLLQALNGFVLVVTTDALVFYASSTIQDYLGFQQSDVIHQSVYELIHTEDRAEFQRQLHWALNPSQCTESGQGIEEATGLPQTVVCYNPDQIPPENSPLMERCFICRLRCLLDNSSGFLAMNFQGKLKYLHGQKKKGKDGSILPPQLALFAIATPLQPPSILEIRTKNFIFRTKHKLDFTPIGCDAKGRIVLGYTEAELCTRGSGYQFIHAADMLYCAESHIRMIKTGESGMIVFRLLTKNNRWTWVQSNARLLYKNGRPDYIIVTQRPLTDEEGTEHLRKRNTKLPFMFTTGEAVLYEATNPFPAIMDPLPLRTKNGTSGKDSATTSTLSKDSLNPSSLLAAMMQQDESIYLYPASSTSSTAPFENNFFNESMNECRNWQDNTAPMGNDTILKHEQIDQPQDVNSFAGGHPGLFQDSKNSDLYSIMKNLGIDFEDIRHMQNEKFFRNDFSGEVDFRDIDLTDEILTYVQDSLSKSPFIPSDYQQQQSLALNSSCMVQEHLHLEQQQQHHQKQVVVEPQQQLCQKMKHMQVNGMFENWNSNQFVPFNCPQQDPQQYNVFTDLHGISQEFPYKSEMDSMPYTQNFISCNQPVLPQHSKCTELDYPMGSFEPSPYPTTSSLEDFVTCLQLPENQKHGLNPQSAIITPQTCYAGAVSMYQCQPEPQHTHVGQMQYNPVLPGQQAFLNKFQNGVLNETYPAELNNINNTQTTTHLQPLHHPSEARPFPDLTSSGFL
Type: cell-based, murine or human
Description: AHR binds to Dioxin Responsive Elements (DRE) upstream of genes that it activates. One measure of AHR activity is activation of a reporter gene, such as luciferase, downstream of one or multiple DRE elements. Luciferase activity will reflect activation and inhibition of AHR in the cells expressing his reporter.
Murine Hepa1-6 or Hepa-1c1c7 or other murine cell line with a DRE-luciferase reporter either stably or transiently transfected were plated in media in plates (96-well, 384-well or other plates) and incubated overnight at 37° C. in a CO2 incubator or compound and agonist were added at the time of plating. Likewise, human HepG2 or other human cell line with a DRE-luciferase reporter either stably or transiently transfected were plated in media in plates (96-well, 384-well or other plates) and incubated overnight at 37° C. in a CO2 incubator or compound and agonist were added at the time of plating.
At the time that cells are plated or following incubation overnight, an AHR activating ligand, such as TCDD, kynurenine, ITE (2-(1H-indole-3-ylcarbonyl)-4-thiazolecarboxylic methyl ester), VAF347, BNF (beta-naphthoflavone), FICZ (6-formylindolo(3,2-b) carbazole or other AHR ligands, was added with or without AHR antagonist.
Cells were incubated for 4, 15 or 24 hours or another time point and then lysed for determination of luciferase activity as a read-out of the AHR activation or inhibition. Luciferase was measured with a commercial kit such as the Promega Luciferase kit or any kit or reagents that provide the luciferin substrate for measuring luciferase activity. The level of luciferase with only activating ligand added was the maximum signal while the luciferase with no ligand was the minimum signal. IC50 values were determined as the concentration which inhibits half of the luciferase activity.

`CC(C)N(C)c1cc(NCCc2c[nH]c3ccccc23)nc(-c2cncc(F)c2)n1` [I-93, 2-(5-Fluoro-3-pyridyl)-N6-[2-(1H-indol-3-yl)ethyl]-N4-isopropyl-N4-methyl-pyrimidine-4,6-diamine] and `CC(C)Oc1nc(NCCc2c[nH]c3ccccc23)nc(-c2cncc(F)c2)n1` [I-136, 4-(5-Fluoro-3-pyridyl)-N-[2-(1H-indol-3-yl)ethyl]-6-isopropoxy-1,3,5-triazin-2-amine] cannot be ordered by IC50: < 500 nM for the first, < 500 nM for the second.

Going from `CC(C)c1cnn2c(N[C@@H]3CCc4ccc(O)cc4C3)cc(-c3cncc(F)c3)nc12` [I-94a, (3R)-3-[[5-(5-fluoro-3-pyridyl)-3-isopropyl-pyrazolo[1,5-a]pyrimidin-7-yl]amino]tetralin-6-ol] to `CC(C)c1cnn2c(NCCc3ccc(O)cc3)cc(-c3cncc(F)c3)nc12` [I-108, 4-[2-[[5-(5-Fluoro-3-pyridyl)-3-isopropyl-pyrazolo[1,5-a]pyrimidin-7-yl]amino]ethyl]phenol], the IC50 falls from > 1500 nM to < 500 nM. The second is the more potent here.

`CC(C)c1cnn2c(C(=O)NCc3cccc(O)c3)cc(-c3cncc(F)c3)nc12` [I-95, 5-(5-Fluoro-3-pyridyl)-N-[(3-hydroxyphenyl)methyl]-3-isopropyl-pyrazolo[1,5-a]pyrimidine-7-carboxamide] and `CC(C)c1cnn2c(C(=O)NCc3ccc(O)cc3)cc(-c3cncc(F)c3)nc12` [I-100, 5-(5-Fluoro-3-pyridyl)-N-[(4-hydroxyphenyl)methyl]-3-isopropyl-pyrazolo[1,5-a]pyrimidine-7-carboxamide] cannot be ordered by IC50: > 1500 nM for the first, > 1500 nM for the second.

`CC(C)c1cnn2c(N[C@H](C)Cc3ccc(O)cc3)cc(-c3cncc(F)c3)nc12` [I-97a, 4-[(2R)-2-[[5-(5-Fluoro-3-pyridyl)-3-isopropyl-pyrazolo[1,5-a]pyrimidin-7-yl]amino]propyl]phenol] and `CC(C)c1cnn2c(N[C@@H](C)Cc3c[nH]c4ccccc34)cc(-c3cncc(F)c3)nc12` [I-98a, 5-(5-Fluoro-3-pyridyl)-N-[(1S)-2-(1H-indol-3-yl)-1-methyl-ethyl]-3-isopropyl-pyrazolo[1,5-a]pyrimidin-7-amine] cannot be ordered by IC50: > 1500 nM for the first, > 1500 nM for the second.

First: CC(C)c1cnn2c(NCCc3c[nH]c4c(F)cc(F)cc34)cc(-c3cncc(F)c3)nc12 [I-99, N-[2-(5,7-Difluoro-1H-indol-3-yl)ethyl]-5-(5-fluoro-3-pyridyl)-3-isopropyl-pyrazolo[1,5-a]pyrimidin-7-amine]
Second: CC(C)c1cnn2c(NCCc3c[nH]c4cccnc34)cc(-c3cncc(F)c3)nc12 [I-110, 5-(5-Fluoro-3-pyridyl)-3-isopropyl-N-[2-(1H-pyrrolo[3,2-b]pyridin-3-yl)ethyl]pyrazolo[1,5-a]pyrimidin-7-amine]
The IC50 of the first is lower: < 500 nM for the first, 500 to 1000 nM for the second. The first is the more potent here.

`Cc1cc(CCNc2cc(-c3cncc(F)c3)nc3c(C(C)C)cnn23)ccc1O` [I-102, 4-[2-[[5-(5-Fluoro-3-pyridyl)-3-isopropyl-pyrazolo[1,5-a]pyrimidin-7-yl]amino]ethyl]-2-methyl-phenol] and `OCc1cnn2c(NCCc3c[nH]c4c(O)cccc34)cc(-c3cncc(F)c3)nc12` [I-133, 3-[2-[[5-(5-fluoro-3-pyridyl)-3-(hydroxymethyl)pyrazolo[1,5-a]pyrimidin-7-yl]amino]ethyl]-1H-indol-7-ol] cannot be ordered by IC50: < 500 nM for the first, < 500 nM for the second.

Compared with `CC(C)Oc1cc(NCCc2c[nH]c3cccnc23)nc(-c2cncc(F)c2)n1` [I-104, 2-(5-Fluoro-3-pyridyl)-6-isopropoxy-N-[2-(1H-pyrrolo[3,2-b]pyridin-3-yl)ethyl]pyrimidin-4-amine], `Cc1cnn2c(-c3cncc(F)c3)cc(NCCc3c[nH]c4ccccc34)nc12` [I-124, 7-(5-Fluoro-3-pyridyl)-N-[2-(1H-indol-3-yl)ethyl]-3-methyl-pyrazolo[1,5-a] pyrimidin-5-amine] is higher in IC50: 500 to 1000 nM for the first, > 1500 nM for the second. The first is the more potent here.

Compared with `Fc1cncc(-c2ccnc(NCCc3c[nH]c4ccccc34)n2)c1` [I-120, 4-(5-Fluoro-3-pyridyl)-N-[2-(1H-indol-3-yl)ethyl]pyrimidin-2-amine], `Fc1cncc(-c2nc(NCCc3c[nH]c4ccccc34)n3ncc(Br)c3n2)c1` [I-141, 8-bromo-2-(5-fluoro-3-pyridyl)-N-[2-(1H-indol-3-yl)ethyl]pyrazolo[1,5-a][1,3,5]triazin-4-amine] is lower in IC50: > 1500 nM for the first, < 500 nM for the second.

`CC(C)c1cnn2c(N[C@@H]3CCc4[nH]c5ccccc5c4C3)nc(-c3cccc(F)c3)nc12` [I-121, (3R)—N-[2-(3-Fluorophenyl)-8-isopropyl-pyrazolo[1,5-a][1,3,5]triazin-4-yl]-2,3,4,9-tetrahydro-1H-carbazol-3-amine] and `CSc1nc(N[C@@H]2CCc3[nH]c4ccccc4c3C2)n2ncc(C(C)C)c2n1` [I-122, (3R)—N-(8-Isopropyl-2-methylsulfanyl-pyrazolo[1,5-a][1,3,5]triazin-4-yl)-2,3,4,9-tetrahydro-1H-carbazol-3-amine] cannot be ordered by IC50: > 1500 nM for the first, > 1500 nM for the second.

First: Fc1cncc(-c2nc(N[C@@H]3CCc4[nH]c5ccccc5c4C3)n3ncc(C4CCCCC4)c3n2)c1 [I-123, (3R)—N-[8-Cyclohexyl-2-(5-fluoro-3-pyridyl)pyrazolo[1,5-a][1,3,5]triazin-4-yl]-2,3,4,9-tetrahydro-1H-carbazol-3-amine]
Second: CC(C)(C)c1cnn2c(N[C@@H]3CCc4[nH]c5ccccc5c4C3)nc(-c3cncc(F)c3)nc12 [I-132, (R)—N-(8-(tert-Butyl)-2-(5-fluoropyridin-3-yl)pyrazolo[1,5-a][1,3,5]triazin-4-yl)-2,3,4,9-tetrahydro-1H-carbazol-3-amine]
The IC50 of the first is higher: 1000 to 1500 nM for the first, 500 to 1000 nM for the second.

Compared with `Fc1cncc(-c2nc(N[C@@H]3CCc4[nH]c5ccccc5c4C3)n3ccnc3n2)c1` [I-125, (3R)—N-[2-(5-Fluoro-3-pyridyl)imidazo[1,2-a][1,3,5]triazin-4-yl]-2,3,4,9-tetrahydro-1H-carbazol-3-amine], `CC(C)Oc1nc(N[C@@H]2CCc3[nH]c4ccccc4c3C2)nc(-c2cncc(F)c2)n1` [I-135, (3R)—N-[4-(5-Fluoro-3-pyridyl)-6-isopropoxy-1,3,5-triazin-2-yl]-2,3,4,9-tetrahydro-1H-carbazol-3-amine] is lower in IC50: > 1500 nM for the first, < 500 nM for the second. The second is the more potent here.

`CC(C)c1cnn2c(N[C@H]3CCc4nc(N)sc4C3)nc(-c3cncc(F)c3)nc12` [I-128a, (6S)—N6-[2-(5-Fluoro-3-pyridyl)-8-isopropyl-pyrazolo[1,5-a][1,3,5]triazin-4-yl]-4,5,6,7-tetrahydro-1,3-benzothiazole-2,6-diamine] and `CC(C)c1cnn2c(N[C@@H]3CCc4nc(N)sc4C3)nc(-c3cncc(F)c3)nc12` [I-128b, (6R)—N6-[2-(5-Fluoro-3-pyridyl)-8-isopropyl-pyrazolo[1,5-a][1,3,5]triazin-4-yl]-4,5,6,7-tetrahydro-1,3-benzothiazole-2,6-diamine] cannot be ordered by IC50: > 1500 nM for the first, > 1500 nM for the second.

Compared with `CC(C)(C)c1cnn2c(NCCc3c[nH]c4ccccc34)nc(-c3cncc(F)c3)nc12` [I-131, N-(2-(1H-Indol-3-yl)ethyl)-8-(tert-butyl)-2-(5-fluoropyridin-3-yl)pyrazolo[1,5-a][1,3,5]triazin-4-amine], `O=C(O)c1cnn2c(NCCc3c[nH]c4c(O)cccc34)cc(-c3cncc(F)c3)nc12` [I-142] is higher in IC50: < 500 nM for the first, > 1500 nM for the second.

First: CC(C)Oc1cc(-c2cncc(F)c2)nc(N[C@@H]2CCc3[nH]c4ccccc4c3C2)n1 [I-134]
Second: CC(C)c1cnn2c(N[C@H]3CCc4[nH]c5c(F)cc(F)cc5c4C3)nc(-c3cncc(F)c3)nc12 [I-139a, (3S)-6,8-difluoro-N-[2-(5-fluoro-3-pyridyl)-8-isopropyl-pyrazolo[1,5-a][1,3,5]triazin-4-yl]-2,3,4,9-tetrahydro-1H-carbazol-3-amine]
The IC50 of the first is higher: > 1500 nM for the first, < 500 nM for the second.

For `CC(C)c1cnn2c(N[C@@H]3CCc4[nH]c5c(F)cc(F)cc5c4C3)nc(-c3cncc(F)c3)nc12` [I-139b, (3R)-6,8-difluoro-N-[2-(5-fluoro-3-pyridyl)-8-isopropyl-pyrazolo[1,5-a][1,3,5]triazin-4-yl]-2,3,4,9-tetrahydro-1H-carbazol-3-amine], the IC50 was < 500 nM.
